Assay results taken from patent US20120129834A1, “SEROTONIN RECEPTOR ANTAGONISTS FOR USE IN THE TREATMENT OF HUNTINGTON'S DISEASE” (BUCK INSTITUTE FOR RESEARCH ON AGING, priority 2010, published 2012).
Entries after “also recorded” stand apart in the source; their conditions may differ.

Columns and labels:
STHdh111Q/111Q cells = assay: viability (ATP) assay of cell death in serum deprived STHdh111Q/111Q cells (Prestwick library screen and dose/response); format: cell-based; conditions: for loss of viability (ATP levels): dose/response, STHdh111Q/111Q serum deprivation model, FIG. 17 upper panel, n=3/dose; for huntingtin-mediated cell death: screen of the Prestwick Chemical library, cell-based assay of mutant huntingtin-mediated cell death
Description: Viability as measured by ATP levels (normalized to cell number) in cells after 24 h of serum deprivation. Data are show as percent DMSO control (100%). […]
(§1) This library is composed of 1,200 marketed drugs with favorable safety, bioavailability and efficacy properties.

caspase-3/7 = assay: caspase activation assay, STHdh111Q/111Q serum deprivation model; format: cell-based; conditions: dose/response, FIG. 17 lower panel, n=3/dose
R6/2 mouse model of HD [1] = assay: rotarod performance of R6/2 HD mice; format: in vivo; conditions: for rotarod performance / rotarod deficit: at 9 weeks of age, 10 mg/kg
R6/2 mouse model of HD [2] = assay: open field behavior analysis in R6/2 mice; format: in vivo; conditions: treated vs control
Description: as §1

R6/2 mouse model of HD [3] = assay: lifespan of R6/2 mice; format: in vivo; conditions: 10 mg/kg IP daily, treatment groups compared
Description: This may reflect a specific mechanism of action for pizotifen.

[4] = weight loss in the mouse model; format: in vivo; conditions: 7.5 mg/kg, FIG. 21
ERK pathway = assay: activation of the ERK pathway in vivo (striatum, cortex); set-up: species or system mouse; conditions: FIG. 23
DARPP-32 = DARPP-32 expression as measure of disease progression; format: in vivo; conditions: mouse model of HD, FIG. 24 panels A-C

With CN1CCC(=C2c3ccccc3C=Cc3ccccc32)CC1.Cl [Cyproheptadine, 4-(5H-dibenzo[a,d]cyclohepten-5-ylidene)-1-methylpiperidine hydrochloride] the “loss of viability (ATP levels)” value (STHdh111Q/111Q cells) was “rescue loss of viability” and the huntingtin-mediated cell death (STHdh111Q/111Q cells) was “reproducibly suppress huntingtin-mediated cell death in a dose-dependent manner”.

In the case of CN1CCN(C2=Nc3ccccc3Oc3ccc(Cl)cc32)CC1 [Loxapine, 2-Chloro-11-(4-methylpiperazin-1-yl)dibenzo[b,f][1,4]oxazepine], the “loss of viability (ATP levels)” value (STHdh111Q/111Q cells) is reported as “rescue loss of viability”, the huntingtin-mediated cell death (STHdh111Q/111Q cells) is reported as “reproducibly suppress huntingtin-mediated cell death in a dose-dependent manner” and the caspase-3/7 activation (caspase-3/7) is reported as “rescue”.

For CN1CCC(=C2c3ccccc3CCc3sccc32)CC1 [Pizotifen, 4-(1-methyl-4-piperidylidine)-9,10-dihydro-4H-benzo-[4,5]cyclohepta[1,2]-thiophene], the “loss of viability (ATP levels)” value (STHdh111Q/111Q cells) was “rescue loss of viability”, the huntingtin-mediated cell death (STHdh111Q/111Q cells) was “reproducibly suppress huntingtin-mediated cell death in a dose-dependent manner” and the “dose dependence of correction of rotarod” value (R6/2 mouse model of HD [1]; FIG. 20) was “dose-dependent effect; also recorded: dose dependent response”. The rotarod performance (R6/2 mouse model of HD [1]; R6/2 mice, 10 mg/kg IP daily from 5 weeks of age, after one week of treatment) was “improved”, the “rotarod performance / rotarod deficit” value (R6/2 mouse model of HD [1]; R6/2 mice, 10 mg/kg IP daily from 5 weeks of age) was “significant beneficial effects” and the “rotarod performance / rotarod deficit” value (R6/2 mouse model of HD [1]; R6/2 mice, 10 mg/kg IP daily from 5 weeks of age, listed as pizotifin) was “corrects the rotarod deficit to near wild-type levels”. The rotarod performance (R6/2 mouse model of HD [1]; R6/2 mice, 10 mg/kg IP daily, 6-week old group, after three days of treatment) was “significant improvement”, the “motor deficits (Rotarod performance)” value (R6/2 mouse model of HD [1]; R6/2 mice, two independent studies) was “robustly correct motor deficits (i.e. Rotarod performance) in R6/2 to near wild-type levels” and the “open field, general activity level” value (R6/2 mouse model of HD [2]) was “general activity level of treated animals was normal”. For the same molecule, the “open field, general activity level” value (R6/2 mouse model of HD [2]; listed as pizotifen) was “no statistical differences”, the lifespan (R6/2 mouse model of HD [3]) was “no statistical differences” and the weight loss [4] was “doesn't improve or worsen weight loss”. For the same molecule, the “activation of the ERK pathway in cortex” value (ERK pathway; cortex) was “not observed; also recorded: not cortex activation”, the “activation of the ERK pathway in striatum” value (ERK pathway; striatum) was “activation of the ERK pathway in vivo; also recorded: striatal, but not cortex activation” and the “DARPP-32 decrease (measure of disease progression)” value (DARPP-32) was “rescued”.
